{"source": "patent US20100255045A1", "about": "“COMPOSITION FOR PHOTODYNAMIC SKIN TREATMENT” (priority 2007, published 2010)", "key": {"skin": {"system": "skin", "test": "Applicant's studies of chlorophyllin combined with aminolevulinic acid"}, "Water-solubility": {"test": "Water-solubility", "assay_type": "physicochemical", "details": "compared with chlorophyll"}}}
{"substance": "chlorophyllin", "values": [{"measurement": "effectiveness of aminolevulinic acid", "setting": "skin", "result": "promoting the effectiveness"}, {"measurement": "protective role against side effects of aminolevulinic acid (erythema)", "setting": "skin", "result": "preventing in particular the appearance of erythema"}, {"measurement": "water-solubility", "setting": "Water-solubility", "result": "good water-solubility"}]}
